Data set [1] concerns Candida albicans ATCC 10231. The experiment in a line: antimicrobial serial microdilution, C. albicans. Conditions: Candida albicans, ATCC10231; serial microdilution, 35 °C, 48 h. The class given is cell-based. On the procedure:
(§1) The in vitro antifungal and antimicrobial activities were determined by testing the Schiff bases against the fungi Saccharomyces cerevisiae, Candida albicans, and Aspergillus niger and the bacteria Staphylococcus aureus, Enterococcus faecalis (Gram-positive), Pseudomonas aeruginosa, and Escherichia coli (Gram-negative).
(§2) The bacterial inoculum was prepared by emulsifying overnight colonies from an agar medium in broth (Mueller–Hinton broth). The suspensions were adjusted to a final organism density of 5 × 10^5 colony former units (cfu)/mL. […] The emulsifying of A. niger cultures was done by pouring 5 mL of saline and 0.1% of polysorbate 80 over the Petri dishes. Then, 100 µL of this suspension were diluted in 5 mL of saline and adjusted to an optical density of 0.1 at 530 nm. For S. cerevisiae, fresh exponential YPAD (yeast extract 1%, peptone 2%, adenine 0.004%, […]) cultures were adjusted to an optical density of 0.5 at 600 nm, and then diluted to the equivalent of 1 × 10^4 cells/mL (10^−3 dilution). Stock solutions of Schiff bases were prepared by dissolving them in DMSO at 10 mg/mL. […] The range of concentrations used was empirically selected for each organisms and the Schiff base. Drug sensitivities were assayed by serial dilutions in 96-well plates as previously described. A row with media and cells but without drug was the positive control. The blank was done by preparing a row with media and drugs, but without cells. Plates were fitted with a tight lid before incubation to prevent desiccation. […] The minimum bactericidal concentration (MBC) and fungicidal concentration (MFC) were determined by spreading 100 µL of culture from each well onto a plate (Mueller–Hinton agar for bacteria, Sabouraud dextrose agar for fungi except S. cerevisiae, and YPAD for S. cerevisiae).
For orientation: Broth dilution looks for growth in wells or tubes with falling amounts of substance.

The subject of data set [2] is S. cerevisiae sod1 mutant cells (background BY4741). The experiment in a line: drop test, sod1 mutant yeast. Format: cell-based, Saccharomyces cerevisiae. To be noted: 200 µg/mL, 48 h, 25 °C, compared to control. The method, then:
(§3) Next, we wanted to evaluate the oxidative activity. To do this, drop test assays were performed with wild-type (W303 and BY4741 backgrounds) and sod1 (BY4741 background) yeast cells in the presence of 200 µg/mL of the analyzed Schiff bases (Figure 3). The SOD1 gene encodes superoxide dismutase 1, an enzyme with a major role in detoxifying ROS species generated during metabolism or because of environmental exposure. sod1 mutant cells are unprotected against oxidative agents, decreasing survival in their presence. […] Also, wild-type cells are shown as control, unaffected by the Schiff bases.
(§4) For the drop test with S. cerevisiae, wild-type strain (background W303), and wild type and sod1 mutant cells (background BY4741) were grown overnight in YPAD media until an optical density of 0.5 at 600 nm was reached (equivalent to 1 × 10^7 cells/mL). Three serial dilutions were prepared and 5 µL of each was spotted onto a plate (approximately 1 × 10^5, 1 × 10^4, 1 × 10^3, and 1 × 10^2 cells/spot). YPAD plates were supplemented with 200 µg/mL of each Schiff base, and one plate supplemented with 2% DMSO and one plate with YPAD without any drug were used as controls. Plates were incubated at 25 °C for 24, 48, and 72 h.

The subject of data set [3] is promastigotes from L. mexicana (M379). The experiment in a line: leishmanicidal activity, MTT colorimetric assay. The class given is cell-based. Conditions: Leishmania mexicana, 48 h exposure, 1% DMSO. On the procedure: Leishmanicidal activities of all Schiff bases were evaluated by measuring promastigote mitochondrial activity using MTT colorimetric assay as described previously. […] The medium was renewed every four days. Parasite density was determined in a Neubauer chamber.
Into each well of a 96-well cell culture dish was dispensed 1 × 10^6 parasites. A stock solution of each of the Schiff Base was prepared in DMSO, and serial dilutions were added to the parasite suspension, keeping the solvent concentration at 1%. The final volume was 100 µL for each well and triplicate conditions were carried out. Pentamidine treatment (100 µg/mL) and untreated parasites were used as positive control and negative control, respectively. After exposure to the compounds for 48 h in culture medium, 10 µL of a solution of 5 mg/mL MTT dissolved in PBS was added to each well. […] Later, the plate was centrifuged at 4400 rpm for 10 min and the culture medium was then aspirated. Next, 100 µL of DMSO were added into each well to solubilize the formazan and the plate was shaken for 5 min. The colored formazan salt was measured by recording changes in absorbance at 570 nm using a microplate reader, a BioTek Synergy HT spectrophotometer. A reference wavelength of 630 nm was used to subtract background. Optical densities were analyzed as the quantity of formazan is directly proportional to the number of viable parasites. Data were analyzed with the statistical software GraphPad Prism.
For orientation: Tetrazolium dyes change colour on reduction, which living cells bring about.

The test system of data set [4] is S. cerevisiae wild type (BY4741). The data set is described as follows: growth inhibition (OD600) of wild-type yeast, oxidative effect. The class given is cell-based, Saccharomyces cerevisiae. Conditions: unit not given. The method, then:
(§5) Next, we wanted to evaluate the oxidative activity. To do this, drop test assays were performed with wild-type (W303 and BY4741 backgrounds) and sod1 (BY4741 background) yeast cells in the presence of 200 µg/mL of the analyzed Schiff bases (Figure 3). The SOD1 gene encodes superoxide dismutase 1, an enzyme with a major role in detoxifying ROS species generated during metabolism or because of environmental exposure. sod1 mutant cells are unprotected against oxidative agents, decreasing survival in their presence.
(§6) (A) Drop test of serial dilution of yeast cell cultures (wild type from genetic background W303, wild type from genetic background BY4741, and sod1 mutant from genetic background BY4741) exposed to Schiff bases at 200 µg/mL. A control without drug and with 2% DMSO are included.
as §2

The test system of the next data set is P. aeruginosa ATCC 27853. The data set is described as follows: antimicrobial serial microdilution, P. aeruginosa. Format: cell-based. Conditions: Pseudomonas aeruginosa, ATCC27853, 37 °C, 24 h. The method, then: as §1, §2
Data set [5] is described as follows: DPPH radical scavenging assay. The class given is biochemical. The method, then:
This was used immediately. The experimental procedure was adapted from the literature. Briefly, in a 96-well plate, 100 µL of solution of DPPH (2, 2-diphenyl-1-picrylhydrazyl) radical (0.2 mM in methanol) was added to 100 µL of methanolic solutions of 3a–j, 4, or 5, prepared as serial two-fold dilutions from the stock solution. Standards were also prepared in the same concentrations.
The percentage of DPPH scavenging was then calculated by using the following formula: % DPPH scavenging=100∗Asample+DPPH−Asample blank/ADPPH−Asolvent

Data set [6] deals with Staphylococcus aureus ATCC 29213. The experiment in a line: antimicrobial serial microdilution, S. aureus. Conditions: Staphylococcus aureus, ATCC29213; serial microdilution, 37 °C, 24 h. Format: cell-based. On the procedure:
as §1, §2

Data set [7] deals with S. cerevisiae sod1 mutant (BY4741). The data set is described as follows: growth inhibition (OD600) of sod1 mutant yeast, oxidative effect. The class given is cell-based, Saccharomyces cerevisiae. Conditions: sod1 mutant BY4741, unit not given. On the procedure: as §5, §6, §2
In data set [8] the test system is S. cerevisiae wild-type (W303 and BY4741 backgrounds). The experiment in a line: drop test, wild-type yeast. Format: cell-based, Saccharomyces cerevisiae. Conditions: 200 µg/mL, 48 h, 25 °C. The method, then:
Since the Schiff bases have a limited solubility in dimethyl sulfoxide (DMSO), first, we tested the toxicity of DMSO against the selected microorganism. […] Wild-type cells from W303 background seem to be more resistant, and sensitivity is observed at around 4% DMSO.
as §3, §4

Data set [9] concerns Aspergillus niger ATCC 6275. The experiment in a line: antimicrobial serial microdilution, A. niger. Conditions: Aspergillus niger, ATCC6275; serial microdilution, 96-well plates, 35 °C, 48 h, max 2% DMSO. Format: cell-based. On the procedure:
as §1, §2

In another data set the test system is S. cerevisiae. The experiment in a line: biocidal/biostatic evaluation, plating on drug-free media, S. cerevisiae. The class given is cell-based, Saccharomyces cerevisiae. To be noted: 24 h exposure, then plated on media free of drug. On the procedure: as §2, with “cells.” for “cells. Plates were fitted with a tight lid before incubation to prevent desiccation.”

Data set [10] relates to Enterococcus faecalis ATCC 29212. The experiment in a line: antimicrobial serial microdilution, E. faecalis. Format: cell-based. To be noted: Enterococcus faecalis, ATCC29212; serial microdilution, 37 °C, 24 h. The method, then:
as §1, §2

Data set [11] concerns S. cerevisiae (backgrounds W303 and BY4741). The data set is described as follows: antimicrobial serial microdilution, S. cerevisiae. The class given is cell-based, Saccharomyces cerevisiae. Conditions: serial microdilution, 35 °C, 48 h. The method, then: as §1, §2
Data set [12] has as its system Escherichia coli ATCC 25922. The data set is described as follows: antimicrobial serial microdilution, E. coli. To be noted: serial microdilution, 37 °C, 24 h. Format: cell-based. On the procedure: as §1, §2

The values below come from publication PMC6696115, “Characterization of Antimicrobial, Antioxidant, and Leishmanicidal Activities of Schiff Base Derivatives of 4-Aminoantipyrine” (Molecules, 2019).

Molecules are shown by their SMILES. Values after ≈ are worked out from the molar mass of the structure shown.

The MIC is the smallest concentration in the dilution series that meets the test's criterion for growth inhibition. The term IC50 denotes the concentration that gives 50% inhibition. In general, melting point refers to the temperature of the solid-liquid transition. The compound `Cc1c(N=CC=Cc2ccccc2)c(=O)n(-c2ccccc2)n1C` [Compound 5, 4-Phenylallylideneamino-1,5-dimethyl-2-phenyl-1H-pyrazol-3(2H)-one] had a melting point of 165.5 to 165.9 °C. The same compound registered an MIC in data set [1] of more than 200 µg/mL. In addition, the “sensitivity of sod1 cells in drop test” value in data set [2] is “sensitive”. For the same compound, the IC50 in data set [3] turned out to be 81.5 ± 12.5 µM. Further, the “NIC Wt” value in data set [4] is given as 22.6 ± 0.6. Moreover, the “MIC Wt” value in data set [4] (in µg/mL) was found to be 65.2 ± 0.2. Further, in the data set with P. aeruginosa ATCC 27853, the MIC is more than 200 µg/mL. The half-inhibitory concentration (IC50) in data set [5] (30 min, room temperature, dark, absorbance 515 nm) was more than 200 µM. The “antioxidant activity detected in the DPPH assay” value in data set [5] (statement in words) was “no significant antioxidant activity”. The compound further displayed a minimal inhibitory concentration (MIC) in data set [6] of more than 200 µg/mL. The “NIC sod1” value in data set [7] turned out to be 19.5 ± 0.8. The “MIC sod1” value in data set [7] (in µg/mL) came to 39.4 ± 0.9. Further, in [8], the “effect on wild-type cells in drop test” value is given as “unaffected”. The MIC in data set [9] is more than 200 µg/mL. Besides, the “inhibitory mechanism (fungicidal or fungistatic)” value in the data set on S. cerevisiae was “fungicidal”. This compound also showed an MIC in [10] of more than 200 µg/mL. Also, the IC50 in [11] (Saccharomyces cerevisiae, read-out: IC50 S. cerevisiae (converted)) was 22.8 µg/mL (≈ 71.8 µM). Also, the MIC in [11] (Saccharomyces cerevisiae, read-out: MIC S. cerevisiae) worked out at 76.7 ± 5.7 µg/mL (≈ 242 µM). In data set [11] (noninhibitory concentration), the “NIC S. cerevisiae” value turned out to be 6.6 ± 0.7 µg/mL. Besides, in [12] (Escherichia coli, ATCC25922), the IC50 was 12.4 µg/mL (≈ 39.1 µM) and the MIC was determined as 22.6 ± 14.1 µg/mL (≈ 71.2 µM). Also, the “NIC E. coli” value in data set [12] (noninhibitory concentration) stood at 5.1 ± 2.4 µg/mL.
